Test [1] has as its target T1, acyl-CoA : cholesterol acyltransferase (ACAT) (Rattus norvegicus, UniProt Q7TQM4).
T1 construct: mucosal microsome fraction of the small intestine; from tissue; host or cells: mucosal microsome fraction of rat small intestine
T1 sequence (Q7TQM4 1-524): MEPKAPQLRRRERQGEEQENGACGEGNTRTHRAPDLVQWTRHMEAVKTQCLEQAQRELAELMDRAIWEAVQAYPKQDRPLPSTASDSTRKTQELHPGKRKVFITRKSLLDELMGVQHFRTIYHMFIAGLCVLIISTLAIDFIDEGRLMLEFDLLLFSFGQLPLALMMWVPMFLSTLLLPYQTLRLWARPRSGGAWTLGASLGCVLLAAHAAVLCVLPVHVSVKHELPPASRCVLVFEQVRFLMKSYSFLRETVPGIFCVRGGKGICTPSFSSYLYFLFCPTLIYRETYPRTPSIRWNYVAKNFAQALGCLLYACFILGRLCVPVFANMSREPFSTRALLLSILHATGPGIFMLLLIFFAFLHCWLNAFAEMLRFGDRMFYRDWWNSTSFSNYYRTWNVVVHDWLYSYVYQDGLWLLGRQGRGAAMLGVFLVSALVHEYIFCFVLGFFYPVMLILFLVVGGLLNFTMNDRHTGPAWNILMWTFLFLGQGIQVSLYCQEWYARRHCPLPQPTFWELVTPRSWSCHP
Description: Acyl-CoA : Cholesterol Acyltransferase (ACAT) inhibitory activity. To be noted: for inhibition at 1 µM: 10^-6 M of test compound, production of labeled cholesterol ester, read-out: ACAT Inhibition Rate (%); for IC50: calculated by plotting inhibition rates obtained at plural concentrations, read-out: 50% inhibitory concentration (IC50). It counts as biochemical. On the procedure: The enzyme ACAT was prepared by the method of Heider et al. described in Journal of Lipid Research, Vol. 24, page 1127 (1982), from the mucosal microsome fraction of the small intestine of male, 6-week old Sprague-Dawley rats which had been fasted for 20 hours.
ACAT activity was calculated by the method of Helgerud et al. described in Journal of Lipid Research, Vol. 22, page 271 (1981), namely, by measuring the amount of the labeled cholesterol ester produced from [1-^14 C] oleoyl-CoA and endogenous cholesterol. […]

The nature of test [2]: Plasma Cholesterol Lowering Activity in Cholesterol Fed Rat. The test is classed as in vivo, rat (Sarague-Dawely). The conditions noted are these: 1% cholesterol diet containing 0.0003% of test compound for 7 days; Example 3 dose 0.27 ± 0.02, Example 24 dose 0.24 ± 0.03 mg/kg/day; mean ± standard deviation; *p < 0.05 (t test vs control group 195 ± 32). How it is done: To 7-week old, male Sarague-Dawely rats which were grouped according to body weight was fed 1% cholesterol diet containing 0.5% of cholic acid, 5% of olive oil and 0.0003% of a test compound for 7 days. Blood was collected from the rats during 8:30-10:00 am at the fed state, and the plasma cholesterol level was measured enzymatically. The amount of test compound consumed by rats was calculated on the basis of the amount of the diet consumed by the rats.

For the molecule `CCn1c(=O)c(NC(=O)Nc2ccc(F)cc2F)c(-c2ccccc2Cl)c2cc(C)cc(C)c21` [Example 6, N-[4-(2-chlorophenyl)-1-ethyl-1,2-dihydro-6,8-di-methyl-2-oxo-3-quinolyl]-N'-(2,4-difluorophenyl)urea], the inhibition at 1 µM in test [1] turned out to be 97.9%.

Regarding `Cc1cc2c(-c3ccccc3C)c(NC(=O)Nc3ccc(F)cc3F)c(=O)n(C)c2cc1Cl` [Example 24, N-[7-chloro-1,2-dihydro-4-(2-methylphenyl)-1,6-dimethyl-2-oxo-3-quinolyl]-N'-(2,4-difluorophenyl)urea], in test [1], the inhibition at 1 µM came out at 99.2% and the IC50 was 9.3 nM. In test [2], the “Cholesterol in Serum” value came to 113 ± 41 mg/dL. As for `CC(C)c1ccc2c(c1)c(-c1ccccc1Cl)c(NC(=O)Nc1ccc(F)cc1F)c(=O)n2C` [Example 19, N-[4-(2-chlorophenyl)-1,2-dihydro-6-isopropyl-1-methyl-2-oxo-3-quinolyl]-N'-(2,4-difluorophenyl)urea], in test [1], the inhibition at 1 µM was 97.8% and the IC50 is 37 nM. Turning to `Cc1cccc(C(C)C)c1NC(=O)Nc1c(-c2ccccc2Cl)c2cc(Cl)ccc2n(C)c1=O` [Example 2], in test [1], the inhibition at 1 µM is 99.2% and the IC50 is 16 nM. On to `COc1nc2c(C)cc(C)cc2c(-c2ccccc2Cl)c1NC(=O)Nc1ccc(F)cc1F` [Example 12, N-[4-(2-chlorophenyl)-2-methoxy-6,8-dimethyl-3-quinolyl]-N -(2,4-difluorophenyl)urea], for which, in test [1], the inhibition at 1 µM stood at 95.9%.

For `CCc1ccc2c(c1)c(-c1ccccc1Cl)c(NC(=O)Nc1c(C)cccc1C(C)C)c(=O)n2C` [Example 18, N-[4-(2-chlorophenyl)-1,2-dihydro-6-ethyl-1-methyl-2-oxo-3-quinolyl]-N'-(2-isopropyl-6-methylphenyl)urea], in test [1], the inhibition at 1 µM worked out at 99.2% and the IC50 was 12 nM. `Cn1c(=O)c(NC(=O)Nc2ccc(F)cc2F)c(-c2ccccc2Cl)c2cc(Cl)ccc21` [Example 1]: in test [1], the inhibition at 1 µM came out at 96.8%. Take `COc1nc2ccc(Cl)cc2c(-c2ccccc2Cl)c1NC(=O)Nc1ccc(F)cc1F` [Example 9]: the inhibition at 1 µM in test [1] was 89.6%. Turning to `COc1ccc(-c2c(NC(=O)Nc3c(C)cccc3C(C)C)c(=O)n(C)c3ccc(Cl)cc23)cc1OC` [Example 23], in test [1], the inhibition at 1 µM came to 99% and the IC50 was 41 nM. `COc1cc(NC(=O)Nc2c(-c3ccccc3Cl)c3cc(C)c(C)cc3n(C)c2=O)cc(OC)c1OC(C)=O` [Example 15, N-(4-acetoxy-3,5-di-methoxyphenyl) -N'-[4-(2-chlorophenyl)-1,2-dihydro-1,6,7-trimethyl-2-oxo-3-quinolyl]urea]: the inhibition at 1 µM in test [1] came to 90.1%. As for `CCc1ccc2c(c1)c(-c1ccccc1Cl)c(NC(=O)Nc1ccc(F)cc1F)c(=O)n2C` [Example 17, N-[4-(2-chlorophenyl)-1,2-dihydro-6-ethyl-1-methyl-2-oxo-3-quinolyl]-N'-(2,4-difluorophenyl)urea], in test [1], the inhibition at 1 µM stood at 96.5% and the IC50 is 25 nM.

For `Cc1cc(C)c2c(c1)c(-c1ccccc1Cl)c(NC(=O)Nc1ccc(F)cc1F)c(=O)n2C` [Example 4, N-[4-(2-chlorophenyl)-1,2-dihydro-1,6,8-trimethyl-2-oxo-3-quinolyl]-N'-(2,4-difluorophenyl)urea], the inhibition at 1 µM in test [1] is 97.1%. As to `Cc1cc(C)c2c(c1)c(-c1ccccc1Cl)c(NC(=O)Nc1c(C)cccc1C(C)C)c(=O)n2C` [Example 5, N-[4-(2-chlorophenyl)-1,2-dihydro-1,6,8-trimethyl-2-oxo-3-quinolyl]-N'-(2-isopropyl-6-methylphenyl)urea], in test [1], the inhibition at 1 µM is 98.2% and the IC50 is 18 nM. `COc1ccc(-c2c(NC(=O)Nc3c(C)cccc3C(C)C)c(=O)n(C)c3ccc(C)cc23)cc1OC` [Example 22, N-[1,2-dihydro-4-(3,4-dimethoxyphenyl)-1,6-dimethyl-3-quinolyn]-N'-(2-isopropyl-6-methylphenyl)urea]: in test [1], the inhibition at 1 µM was 99% and the IC50 was 37 nM.

For the molecule `Cc1ccccc1-c1c(NC(=O)Nc2c(C)cccc2C(C)C)c(=O)n(C)c2ccc(Cl)cc12` [Example 21, N-[6-chloro-1,2-dihydro-1-methyl-4-(2-methylphenyl)-2-oxo-3-quinolyl]-N'-(2-isopropyl-6-methylphenyl)urea], in test [1], the inhibition at 1 µM is 99.4% and the IC50 was 17 nM.

Consider `Cc1cc(C)c2nc(C)c(NC(=O)Nc3ccc(F)cc3F)c(-c3ccccc3Cl)c2c1` [Example 13, N-[4-(2-chlorophenyl)-2,6,8-trimethyl-3-quinolyl]-N'-(2,4-difluorophenyl)urea], for which the inhibition at 1 µM in test [1] was 85.4%. In the case of `Cc1ccccc1-c1c(NC(=O)Nc2ccc(F)cc2F)c(=O)n(C)c2ccc(Cl)cc12` [Example 20, N-[6-chloro-1,2-dihydro-1-methyl-4-(2-methylphenyl)-2-oxo-3-quinolyl]-N'-(2,4-difluorophenyl)urea], in test [1], the inhibition at 1 µM is 96.1% and the IC50 was 35 nM.

On to `Cn1c(=O)c(NC(=O)Nc2ccc(F)cc2F)c(-c2ccccc2)c2cc(Cl)ccc21` [Example 7, N-(6-chloro-1,2-dihydro-1-methyl-2-oxo-4-phenyl-3-quinolyl)-N'-(2,4-difluorophenyl)urea], for which the inhibition at 1 µM in test [1] turned out to be 77.9%.

As to `Cc1cc2c(-c3ccccc3C)c(NC(=O)Nc3ccc(F)cc3F)c(=O)n(C)c2cc1C` [Example 10, N-(2,4-difluorophenyl)-N'-(1,2-dihydro-1,6,7-trimethyl-4-(2-methylphenyl)-2-oxo-3-quinolyl]urea], in test [1], the inhibition at 1 µM came to 97.6% and the IC50 was 78 nM. As for `COc1ccc(-c2c(NC(=O)Nc3ccc(F)cc3F)c(=O)n(C)c3ccc(C)cc23)cc1OC` [Example 11, N-(2,4-difluorophenyl)-N'-[1,2-dihydro-4-(3,4-di-methoxyphenyl) -1,6-dimethyl-2-oxo-3-quinolyl]urea], in test [1], the inhibition at 1 µM was determined as 96.6%.

On to `Cc1cc2c(-c3ccccc3Cl)c(NC(=O)Nc3ccc(F)cc3F)c(=O)n(C)c2cc1C` [Example 3, N-[4-(2-chlorophenyl)-1,6,7-trimethyl-1,2-dihydro-2-oxo-3-quinolyl]-N'-(2,4-difluorophenyl)urea], for which, in test [1], the inhibition at 1 µM amounted to 98.7% and the IC50 is 6.4 nM. The “Cholesterol in Serum” value in test [2] amounted to 129 ± 19 mg/dL.

What is called inhibition is the change of the read-out against control, counted positive when it falls.
